Test results reported in patent US20040023892A1, “Pharmaceutical composition based on a non-steroid anti-inflammatory agent” (priority 2002, published 2004).
Marks after values point to notes of the source that are not given here.

What was measured:
[1] = system: ambulatory patients; test: Clinical investigation of side effects of NAIA combinations with carbohydrates or sorbents
[2] = system: breedless mice-male; test: Acute toxicity of ASA (LD50) with carbohydrate or sorbent; type: in vivo; settings: relative to LD50 of ASA alone
Method: Tests were conducted on breedless mice-male with mass 22-26 g. Acute toxicity of ASA was evaluated in accordance with the value LD50 (dose from which 50% of animals perish) of composition containing ACA plus carbohydrate or sorbent with ratio 4:1 when compared with LD50 ASA. Preparations were introduced one time intostomach in form of aqueous suspension with doses 350-3000 mg/kg to groups of six mice. Observations were conducted during 14 days. As a substance which has absorbing properties there were used activated carbon, white clay (caolin), aluminum hydroxide, magnium tricilicate, hydroxylapatite, microcrystaalline cellulose (MCC). As carbohydrates there were used monosaccarides-glucose and fructose, disaccaride-saccarose and lactose, and polysaccaride-potato starch. Results of experiments were processed in accordance with the method of Lichfield-Wilkoxon (Belensky, M. L. “Elements of quantitative evaluation of pharmacological effect,” second edition, redone and added, L, Medgiz, 1963, 152 p).
LD50 composition were counted on ASA (tables 7, 8).

[3] = system: inflammatory swelling of paw of mice after introduction of carragenin; test: Inflammatory swelling of paw of mice after introduction of carragenin; type: in vivo; settings: dose mg/kg; for swelling of paw of mice after introduction of carragenine: Table 4, Control: NAIA alone; for Increase of Mass of Limb / Suppression of Swelling, % to Control: preparation alone, into stomach once a day 5 days, 3.5 hours after carragenin; for swelling of paw of mice after introduction of carragenin: the values are: increase of paw mass
Method: Tests were performed on breedless white mice-males with mass 22-24 g. The investigated preparations were introduced to animals through a probe into stomach once a day during five days in form of suspension on 1% starch mucous or aqueous solution.
In one hour after the last introduction of preparations, mice were injected with 0.05 ml of 1% of solution of carragenin in isotonic solution of sodium chloride, under aneurism of right rear paw. After 3.5 hours, on a peak of inflammation, they were killed by dislocation of a neck area of spine. Swollen and healthy paws were compared, and a degree of suppression of swelling was determined in test groups when compared with a control group in accordance with the formula:
Increase of mass of paw in control-increase of mass of paw in test ______ 100 increase of mass of paw in control.
Tests were performed on breedless white mice-males with mass 22-26 g.

[4] = system: ambulatory patients; settings: human, in vivo
[5] = 0.25 g with succinate of ammonium 0.1 g and activated carbon (0.35 g), two times a day 8 weeks

Row | Compound | swelling of paw of mice after introduction of carragenine ([3]; N = 10) | Increase of Mass of Limb ([3]; n = 10) | Suppression of Swelling, % to Control ([3]; n = 10) | also measured
1 | CC(=O)Oc1ccccc1C(=O)O [ASA, acetyl salicylic acid] | 41.3* |  |  | better taking of mixture ASA and ammonium succinate [1, 5]: Four from five; dyspeptic phenomena [1, 5]: all 5 exhibited dyspeptic phenomena to a lesser degree; Increase of Toxicity In [2]: 0
2 | CCCCC1C(=O)N(c2ccccc2)N(c2ccccc2)C1=O [BN, butadion] | 32.4* |  |  | 
3 | O=C(O)/C=C/C(=O)O [FUM, fumaric] |  | 59.3 ± 5.5 mg | −1.3 % to Control | 
4 | NCC(=O)O [GLy, glycin] |  | 63.0 ± 5.5 mg | +4.8 % to Control | 
5 | COc1ccc2c(c1)c(CC(=O)O)c(C)n2C(=O)c1ccc(Cl)cc1 [IM, indometatsin] | 19.0* |  |  | patients needing antyhistamine substances for reduction of allergenic phenomena ([1]; 0.05 g with 0.25 g karsil, group which did not receive sorbent): one more patient needed antyhistamine substances; patients forced to stop taking preparation because of strong headaches in epigastric, vomiting ([1]; 0.05 g with 0.25 g karsil, group which did not receive sorbent, after the third week): 1 patient; side effects of indometnacyne, in particular dispeptic phenomena, dizziness, headaches ([1]; 0.05 g with 0.25 g karsil, together with microcrystalline cellulose 1:2, 5 weeks, versus without sorbent): to a lesser degree
6 | O=c1c(O)c(-c2ccc(O)c(O)c2)oc2cc(O)cc(O)c12 [KV, kvertsetin] |  | 58.7 ± 3.6 mg | −2.3 % to Control | 
7 | O=C(O)CCCCC1CCSS1 (stereo not drawn) [Lipoic acid LA, lipoic acid] |  | 62.3 mg | +3.7 % to Control | 
8 | O=C(O)c1cccnc1Nc1cccc(C(F)(F)F)c1 [NA, niflumic acid] | 31.1* |  |  | 
9 | COc1ccc2cc([C@H](C)C(=O)O)ccc2c1 [NP, naproxen] | 28.9* |  |  | 
10 | CN1C(C(=O)Nc2ccccn2)=C(O)c2ccccc2S1(=O)=O [PK, piroxikam] | 28.8* | 28.8 ± 4.9 mg | −52.0 % to Control | swelling of paw of mice after introduction of carragenin ([3]; Table 2, column Control: NAIA alone, N = 10): 28.8 mg; swelling of paw of mice after introduction of carragenin ([3]; Table 3, column Control: NAIA alone, n = 10): 28.8 mg; swelling of paw of mice after introduction of carragenin ([3]; Table 5, column Control: NAIA alone, N = 10): 28.8 mg
11 | N.N.O=C(O)CCC(=O)O [S-NH4, succinate of ammonium] |  | 63.5 ± 6.1 mg | +5.7 % to Control | 
12 | N[C@@H](CS)C(=O)O [TIS, tsistein] |  | 61.5 ± 6.4 mg | +2.3 % to Control | 
13 | O=C(O)Cc1ccccc1Nc1c(Cl)cccc1Cl [VL, voltaren] | 24.3* |  |  | 
14 | O=C([O-])Cc1ccccc1Nc1c(Cl)cccc1Cl.[Na+] [ortofen] |  |  |  | dispeptic phenomenon, headaches, dizziness [4]: less exhibited; taking of medication [4]: taking medication better
15 | Vitamin B6 [Vit B6] |  | 60.5 mg | +0.7 % to Control | 
16 | Vitamin E [Vit E] |  | 58.7 mg | −2.3 % to Control | 
